Calls of active or inactive are those of the source.
What was measured:
[1] = target: T1, RNA-binding protein pos-1 (Caenorhabditis elegans, UniProt G5EF15); assay: disruptors of C. elegans POS-1 RNA interaction – biochemical, fluorescence polarization, dose response (AID 1964);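 further: purified POS-1 fused to maltose binding protein made in E. coli; potency of compounds blocking POS-1 binding to fluorescent RNA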
T1 sequence (G5EF15 whole entry): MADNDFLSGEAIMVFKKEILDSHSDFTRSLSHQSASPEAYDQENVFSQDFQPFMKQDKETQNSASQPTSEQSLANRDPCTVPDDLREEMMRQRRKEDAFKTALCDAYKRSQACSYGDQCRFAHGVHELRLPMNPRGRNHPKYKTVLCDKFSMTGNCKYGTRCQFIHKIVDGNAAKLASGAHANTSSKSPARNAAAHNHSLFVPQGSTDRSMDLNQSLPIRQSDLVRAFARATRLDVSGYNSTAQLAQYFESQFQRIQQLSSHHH

[2] = target: T2, Polyadenylate-binding protein 1 (Homo sapiens, UniProt P11940); assay: MLLE domain peptide-binding blockers, IC50 – biochemical, fluorescence polarization, FITC-PAM2 peptide, dose response (AID 602259); format: functional; settings: read-out: IC50_Mean
T2 sequence (P11940 whole entry, the tested form may be a part): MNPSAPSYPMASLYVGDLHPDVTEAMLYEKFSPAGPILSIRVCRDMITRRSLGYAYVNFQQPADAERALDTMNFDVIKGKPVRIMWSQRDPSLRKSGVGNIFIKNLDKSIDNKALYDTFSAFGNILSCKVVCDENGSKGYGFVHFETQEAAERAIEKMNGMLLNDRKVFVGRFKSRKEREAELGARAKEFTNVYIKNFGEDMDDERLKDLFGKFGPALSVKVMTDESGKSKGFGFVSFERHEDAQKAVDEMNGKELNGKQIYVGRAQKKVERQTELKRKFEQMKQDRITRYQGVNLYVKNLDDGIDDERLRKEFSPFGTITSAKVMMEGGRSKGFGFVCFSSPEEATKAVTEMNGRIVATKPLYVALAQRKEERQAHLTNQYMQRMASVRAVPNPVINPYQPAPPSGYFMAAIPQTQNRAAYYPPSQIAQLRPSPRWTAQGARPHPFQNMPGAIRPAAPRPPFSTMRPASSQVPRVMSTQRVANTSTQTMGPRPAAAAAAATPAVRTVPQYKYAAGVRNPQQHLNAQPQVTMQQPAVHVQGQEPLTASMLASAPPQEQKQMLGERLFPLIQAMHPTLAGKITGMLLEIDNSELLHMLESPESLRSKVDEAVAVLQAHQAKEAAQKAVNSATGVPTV

[3] = target: T3, Zinc finger protein mex-5 (Caenorhabditis elegans, UniProt Q9XUB2); assay: potency of MEX-5 RNA-binding blockers – biochemical, C. elegans, fluorescence polarization, dose response (AID 1960)
T3 sequence (Q9XUB2 whole entry): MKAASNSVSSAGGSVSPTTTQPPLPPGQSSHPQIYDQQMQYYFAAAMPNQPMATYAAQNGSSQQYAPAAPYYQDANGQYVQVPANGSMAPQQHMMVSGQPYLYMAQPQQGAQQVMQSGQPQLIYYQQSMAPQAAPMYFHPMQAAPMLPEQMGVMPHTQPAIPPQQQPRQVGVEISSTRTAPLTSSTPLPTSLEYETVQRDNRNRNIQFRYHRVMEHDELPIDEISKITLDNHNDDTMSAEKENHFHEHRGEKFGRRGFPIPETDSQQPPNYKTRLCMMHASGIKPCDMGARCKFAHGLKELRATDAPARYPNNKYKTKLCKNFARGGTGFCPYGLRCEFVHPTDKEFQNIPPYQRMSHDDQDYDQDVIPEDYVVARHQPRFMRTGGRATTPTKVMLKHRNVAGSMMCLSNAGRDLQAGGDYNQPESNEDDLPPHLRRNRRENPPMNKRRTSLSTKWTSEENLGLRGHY

[4] = target: T2, Polyadenylate-binding protein 1; assay: MLLE binding blockers, Cy5 peptide tracer – biochemical, fluorescence polarization, Cy5-PAM2 peptide, secondary, miRNA deadenylation inhibitor project, dose response (AID 602260); format: functional; settings: read-out: IC50_Mean
H9c2 = assay: cells; format: functional, cell-based; settings: Rattus norvegicus, H9c2, Myocardium;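 further: confirmatory concentration-response retest of ultra-high-throughput screening hits for modulation of myocardial damage; cell death induced by hydrogen peroxide oxidative stress; compound pretreatment for 60 min then peroxide exposure for 2 h; potency is for protecting the cells against peroxide damage rather than for killing them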
[5] = target: FAD-linked sulfhydryl oxidase ALR (Homo sapiens, UniProt P55789); assay: ALR-catalysed DTT oxidation blockers – biochemical, H2O2 detection, luminescence, cherry-pick, dose response (AID 493248)
Sequence of FAD-linked sulfhydryl oxidase ALR (P55789 whole entry): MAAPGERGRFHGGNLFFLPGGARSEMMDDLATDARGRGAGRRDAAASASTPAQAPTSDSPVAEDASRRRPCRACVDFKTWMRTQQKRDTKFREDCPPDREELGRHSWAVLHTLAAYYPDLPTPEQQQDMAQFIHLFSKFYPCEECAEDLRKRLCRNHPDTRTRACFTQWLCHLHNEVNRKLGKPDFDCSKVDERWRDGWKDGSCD

[6] = viability of HCT116 lacking mutant beta-catenin – cell-based, human colon tumor, dose response (AID 1045); format: functional;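 further: HCT116 colon tumor cells with beta catenin knocked out; cells exposed to compound for 60 hours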
[7] = viability of PTEN-deleted HCT116 cells – cell-based, HCT116 PTEN knockout, dose response (AID 1047); format: functional;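 further: HCT116 colon tumor cells with PTEN knocked out; cells exposed to compound for 60 hours before readout; potency for loss of cell viability measured by luminescence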
Aminopeptidase N = target: T4, Aminopeptidase N (Plasmodium falciparum FcB1/Columbia, UniProt O96935); assay: malaria alanyl aminopeptidase activity blockers – biochemical, fluorogenic H-Leu-NHMec substrate, 1536-well (AID 1445); parameters: species or system Plasmodium falciparum 3D7, 3D7
T4 sequence (O96935 whole entry): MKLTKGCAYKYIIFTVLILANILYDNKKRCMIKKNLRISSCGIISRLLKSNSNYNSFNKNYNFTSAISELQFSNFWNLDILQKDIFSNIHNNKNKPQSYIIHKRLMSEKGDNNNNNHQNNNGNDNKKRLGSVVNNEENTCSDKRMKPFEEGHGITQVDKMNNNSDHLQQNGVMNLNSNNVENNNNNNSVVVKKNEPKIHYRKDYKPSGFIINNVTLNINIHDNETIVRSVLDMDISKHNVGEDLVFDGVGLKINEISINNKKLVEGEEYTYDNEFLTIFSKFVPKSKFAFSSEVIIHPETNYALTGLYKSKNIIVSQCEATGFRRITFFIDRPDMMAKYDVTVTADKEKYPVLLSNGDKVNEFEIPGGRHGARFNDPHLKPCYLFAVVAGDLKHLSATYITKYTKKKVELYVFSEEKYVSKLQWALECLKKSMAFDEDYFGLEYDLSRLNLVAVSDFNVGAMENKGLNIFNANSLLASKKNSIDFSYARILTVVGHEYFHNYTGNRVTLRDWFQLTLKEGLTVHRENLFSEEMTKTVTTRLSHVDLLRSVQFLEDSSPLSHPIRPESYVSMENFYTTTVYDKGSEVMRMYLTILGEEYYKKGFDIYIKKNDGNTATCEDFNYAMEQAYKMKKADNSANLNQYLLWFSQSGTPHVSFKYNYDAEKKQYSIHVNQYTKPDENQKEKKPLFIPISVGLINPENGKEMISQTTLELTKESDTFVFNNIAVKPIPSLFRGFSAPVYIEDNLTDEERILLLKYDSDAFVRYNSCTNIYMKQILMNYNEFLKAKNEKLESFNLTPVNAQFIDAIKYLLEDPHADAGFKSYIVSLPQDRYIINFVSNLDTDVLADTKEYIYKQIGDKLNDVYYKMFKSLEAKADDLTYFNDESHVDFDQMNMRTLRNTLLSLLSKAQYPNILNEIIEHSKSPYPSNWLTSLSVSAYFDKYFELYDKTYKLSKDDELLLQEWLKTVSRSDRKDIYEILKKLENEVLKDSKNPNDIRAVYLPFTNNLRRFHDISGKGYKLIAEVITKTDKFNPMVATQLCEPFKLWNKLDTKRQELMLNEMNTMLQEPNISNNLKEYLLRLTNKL

Streptococcus = assay: GAS UMAA2166 growth inhibition – luminescence, BacTiterGlo, counter-screen for streptokinase expression inhibitor project, dose response (AID 1915); format: functional, organism-based;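 further: potency for reduction of bacterial viability or growth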
[8] = tested on: Streptococcus sp. 'group A'; assay: Streptococcus pyogenes SK(-)GAS viability under kanamycin – luminescence, BacTiterGlo, confirmation, counter-screen for streptokinase expression inhibitor project, dose response (AID 1900); format: functional, organism-based
[9] = target: Glucose-6-phosphate 1-dehydrogenase (Homo sapiens, UniProt P11413); assay: inhibition of Homo sapiens G6PD, dose series – biochemical, fluorescence, selectivity assay for P. falciparum G6PD inhibitor project, dose response (AID 504792); format: functional
Sequence of Glucose-6-phosphate 1-dehydrogenase (P11413 whole entry): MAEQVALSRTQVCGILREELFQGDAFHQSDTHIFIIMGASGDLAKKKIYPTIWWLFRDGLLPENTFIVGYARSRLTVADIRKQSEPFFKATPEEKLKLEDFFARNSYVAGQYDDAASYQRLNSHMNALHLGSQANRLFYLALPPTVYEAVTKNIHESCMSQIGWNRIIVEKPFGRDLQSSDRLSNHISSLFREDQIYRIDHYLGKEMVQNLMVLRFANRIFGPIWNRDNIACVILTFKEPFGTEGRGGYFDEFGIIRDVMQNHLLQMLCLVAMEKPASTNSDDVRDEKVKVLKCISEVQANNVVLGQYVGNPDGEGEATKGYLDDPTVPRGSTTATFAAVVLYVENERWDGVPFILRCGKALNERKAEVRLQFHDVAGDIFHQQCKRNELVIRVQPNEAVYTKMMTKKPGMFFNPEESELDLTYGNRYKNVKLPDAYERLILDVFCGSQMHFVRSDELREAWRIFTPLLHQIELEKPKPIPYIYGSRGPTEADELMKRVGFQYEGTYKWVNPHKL

Large T antigen = Large T antigen (Simian virus 40, UniProt P03070); format: functional, Betapolyomavirus macacae;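 further: Confirmatory-stage PubChem screen for compounds that inhibit SV40 T antigen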
Sequence of Large T antigen (P03070 whole entry): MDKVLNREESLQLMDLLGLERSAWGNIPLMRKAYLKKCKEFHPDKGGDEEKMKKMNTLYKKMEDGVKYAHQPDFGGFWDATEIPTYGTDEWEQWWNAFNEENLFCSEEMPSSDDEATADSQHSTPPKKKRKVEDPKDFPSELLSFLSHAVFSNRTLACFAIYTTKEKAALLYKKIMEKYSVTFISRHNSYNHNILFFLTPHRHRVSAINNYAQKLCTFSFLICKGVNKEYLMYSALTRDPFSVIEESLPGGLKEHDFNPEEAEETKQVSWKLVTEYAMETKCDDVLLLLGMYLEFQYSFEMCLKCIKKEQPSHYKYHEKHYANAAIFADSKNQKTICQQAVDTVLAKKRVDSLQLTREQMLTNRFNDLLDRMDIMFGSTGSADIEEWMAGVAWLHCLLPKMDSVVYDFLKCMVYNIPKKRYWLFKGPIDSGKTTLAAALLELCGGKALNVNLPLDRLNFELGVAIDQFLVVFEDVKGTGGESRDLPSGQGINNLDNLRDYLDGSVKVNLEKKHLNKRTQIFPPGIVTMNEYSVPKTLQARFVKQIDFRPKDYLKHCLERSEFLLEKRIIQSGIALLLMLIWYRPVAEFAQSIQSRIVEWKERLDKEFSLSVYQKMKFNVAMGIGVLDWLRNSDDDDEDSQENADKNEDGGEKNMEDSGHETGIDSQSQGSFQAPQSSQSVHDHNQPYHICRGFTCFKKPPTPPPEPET

[10] = target: T5, Heat shock factor protein 1 (Mus musculus, UniProt P38532); assay: enhancement of HSF1-driven luciferase signal – cell-based, NIH3T3, luminescence, dose retest, confirmation (AID 435004); format: functional;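 further: stress induced by proteasome inhibitor MG132 added 30 min after compound; luciferase reporter driven by HSF1 response element in NIH3T3 cells; actives raise luminescence as potentiators of the MG132 stress response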
T5 sequence (P38532 whole entry): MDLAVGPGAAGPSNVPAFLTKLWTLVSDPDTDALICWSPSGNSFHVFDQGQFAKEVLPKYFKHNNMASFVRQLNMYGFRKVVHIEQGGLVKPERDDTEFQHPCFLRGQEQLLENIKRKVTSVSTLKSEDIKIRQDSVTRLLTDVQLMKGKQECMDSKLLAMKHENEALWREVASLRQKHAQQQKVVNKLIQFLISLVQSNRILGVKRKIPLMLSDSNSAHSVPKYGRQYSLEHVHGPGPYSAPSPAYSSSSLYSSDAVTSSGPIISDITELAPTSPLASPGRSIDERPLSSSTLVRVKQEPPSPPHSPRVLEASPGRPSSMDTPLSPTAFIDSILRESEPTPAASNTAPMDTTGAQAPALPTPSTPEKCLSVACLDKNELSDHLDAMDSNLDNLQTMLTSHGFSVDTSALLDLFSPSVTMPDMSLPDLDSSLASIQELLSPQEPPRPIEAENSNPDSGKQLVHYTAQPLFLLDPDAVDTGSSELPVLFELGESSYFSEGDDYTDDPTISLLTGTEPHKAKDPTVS

Cytochrome P450 2D6 = Cytochrome P450 2D6 (Homo sapiens, UniProt P10635);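 further: CYP2D6 member of a cytochrome P450 panel assay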
Sequence of Cytochrome P450 2D6 (P10635 whole entry): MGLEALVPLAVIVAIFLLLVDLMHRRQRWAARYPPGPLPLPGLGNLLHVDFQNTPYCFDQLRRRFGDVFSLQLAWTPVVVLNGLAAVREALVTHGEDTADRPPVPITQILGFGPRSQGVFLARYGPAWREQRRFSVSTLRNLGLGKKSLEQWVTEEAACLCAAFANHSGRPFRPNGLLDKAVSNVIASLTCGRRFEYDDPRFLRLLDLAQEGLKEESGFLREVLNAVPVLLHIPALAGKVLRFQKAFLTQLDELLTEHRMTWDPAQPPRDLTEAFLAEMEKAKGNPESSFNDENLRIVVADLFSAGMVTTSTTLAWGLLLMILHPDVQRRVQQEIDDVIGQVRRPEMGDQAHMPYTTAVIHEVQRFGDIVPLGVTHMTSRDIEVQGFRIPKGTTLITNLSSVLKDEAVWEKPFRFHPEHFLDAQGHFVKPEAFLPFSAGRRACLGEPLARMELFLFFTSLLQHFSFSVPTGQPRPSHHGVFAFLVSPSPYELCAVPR

Cn1c(O)nc2cc(Cl)cnc21
EC50 [1]: 27 µM (active)
IC50 [2]: 35.1 µM (inactive)
EC50 [3]: 24.8 µM (active)
IC50 [4]: > 66 µM (inactive)

NC(=O)c1nsc(C(=O)N(Cc2ccco2)C(C(=O)NCc2ccccc2)c2ccc(O)cc2)c1N (stereo not given)
IC50 (H9c2): > 79 µM (inactive)

Cc1ccc([N+](=O)[O-])cc1/N=N/c1c(C)[nH]n(C(N)=S)c1=O
AC50 [5]: 5.04 µM (active)

Cn1c(=O)c2c(nc(N/N=C/c3ccc(OC(=O)c4ccco4)cc3)n2Cc2ccccc2Cl)n(C)c1=O
EC50 [6]: 14.6 µM (active)
EC50 [7]: 13.4 µM (active)

CC(=O)Nc1cccc(NC(=O)C2CCCN2C(=O)Nc2cccc(C)c2)c1 (stereo not given)
IC50 (Aminopeptidase N): 39.1 µM (active)

Cc1ccc(NC(=O)Nc2cccs2)cc1
AC50 [5]: 6.23 µM (active)

Nc1nonc1-c1nc2ccccc2n1CC(=O)N/N=C/c1ccc(-c2cccc(C(=O)O)c2)o1
EC50 (Streptococcus): 4.63 µM (active)
EC50 [8]: 4.28 µM (active)
IC50 (Aminopeptidase N): 12.5 µM (active)

O=C(Nc1nnc(S(=O)(=O)N2CCOCC2)s1)c1cccc(Br)c1
IC50 [9]: > 80 µM (inactive)

COc1ccc(C(=O)Nc2sc3c(c2C(=O)O)CC(C)(C)OC3)cc1
IC50 [9]: > 80 µM (inactive)

C=CCn1c(S)nnc1-c1cccc(OC)c1
AC50 [5]: 7.27 µM (active)

CC(=O)Nc1ccc(NS(=O)(=O)c2cc(-c3nnc(O)c4ccccc34)ccc2C)cc1
IC50 (H9c2): > 79 µM (inactive)

CCC(=O)OC1(C)C(=O)C=C2C=C(c3ccc(C#N)cc3)OC=C2C1=O (stereo not given)
EC50 [1]: 85.4 µM (active)
EC50 [3]: 40.8 µM (active)

CC1(C)c2[nH]c3ccccc3c2C[C@@H]2C(=O)N(c3ccc(F)cc3F)C(=O)N21
EC50 [1]: > 300 µM (not active)
EC50 [3]: 46.8 µM (active)

CCCS(=O)(=O)N1CCCC(C(=O)NCCN(CC)c2ccccc2)C1 (stereo not given)
AC50 [5]: 0.33 µM (active)

CS(=O)(=O)N1CCc2cc(C(=O)Nc3ccc(O)cc3)ccc21
AC50 [5]: 3.92 µM (active)
IC50 (Large T antigen): > 100 µM (active)

CC1(OC(=O)c2cnc3ccccc3n2)C(=O)C=C2C=C(C3CC3)OC=C2C1=O (stereo not given)
EC50 [1]: > 300 µM (not active)
EC50 [3]: > 300 µM (not active)

COc1ccc(-c2cc(=O)c3ccccc3[nH]2)cc1
IC50 (H9c2): > 79 µM (inactive)

NS(=O)(=O)c1ccc(CCNc2ccn3nc(-c4ccc(OCCN5CCOCC5)cc4)cc3n2)cc1
IC50 (H9c2): > 79 µM (inactive)

Cc1ccsc1/C=N/NC(=O)c1cccc(S(=O)(=O)Nc2ccccc2Cl)c1
IC50 [9]: > 80 µM (inactive)

COc1ccc(N2C(=O)/C(=C/c3cccs3)NC2=S)cc1
IC50 [9]: > 80 µM (inactive)

CCOC(=O)c1c(C)[nH]c(C)c1C(=O)COc1ncnc2cc([N+](=O)[O-])ccc12
IC50 (H9c2): 26.4 µM (active)
EC50 [10]: > 260 µM (inactive)

COc1ccc(/C=C/C(=O)c2ccc(NC(=O)c3cccs3)cc2)cc1OC
EC50 [6]: 3.01 µM (active)
EC50 [7]: 3.5 µM (active)

CNC(=O)c1cc2c(=O)n3cccc(C)c3nc2n(C(C)C)c1=N
IC50 (Aminopeptidase N): 65.6 µM (active)

CCN(CC)CCC(c1ccc(N(C)C)cc1)c1c(OC)cc(OC)c2ccc(=O)oc12 (stereo not given)
AC50 [5]: 3.28 µM (active)

CCOc1cc(C2C3=C(O)CCCC3=NC3=C2C(=O)CCC3)cc(Cl)c1O (stereo not given)
IC50 (Aminopeptidase N): 23.9 µM (active)

COc1cccc(C(=O)NC2CCN(CC(=O)NCc3ccccc3OC)CC2)c1
IC50 (Aminopeptidase N): 26.9 µM (active)

CCOC(=O)c1nc(Nc2ccc(C(C)=O)cc2)c2ccccc2n1
IC50 (H9c2): 8.56 µM (active)

O=C(Cn1c(SCc2ccccc2)nc2ccccc21)N1CCOCC1
IC50 (Aminopeptidase N): 48.7 µM (active)

COc1cc(SC)ccc1C(=O)Nc1c(Cl)cncc1Cl
AC50 [5]: 0.867 µM (active)

O=C(O)CSc1c(O)nc2ccc(Cl)cc2c1-c1ccccc1
IC50 (Aminopeptidase N): 41 µM (active)

COc1ccc(/C=N/NC(=O)CCCOc2ccc(Cl)cc2Cl)cc1[N+](=O)[O-]
EC50 [6]: 59.7 µM (active)
AC50 (Cytochrome P450 2D6): 10 µM (inconclusive)
EC50 [7]: 281 µM (active)

CC(C)n1cnc2cc(NCc3ccccc3O)ccc21
AC50 [5]: 1.44 µM (active)

CC(OC(=O)CCc1nc(O)c2ccccc2n1)C(=O)NCc1ccc2c(c1)OCO2 (stereo not given)
IC50 (H9c2): > 79 µM (inactive)

Oc1c(Br)cc(Cl)cc1/C=N/c1ccccc1Br
IC50 (H9c2): > 79 µM (inactive)

COc1ccc2c(c1)O[C@H](c1ccc3c(c1)OCO3)[C@@H](OC(=O)N[C@H](C)C1CCCCC1)C2=O
EC50 [6]: 10.4 µM (active)
EC50 [7]: 11.6 µM (active)

Reference: ChEMBL document CHEMBL1201862, “PubChem BioAssay data set” (2004)
